The results in this text go back to patent publication US20100184603A1, “Alcohol alkoxylates, compositions containing these, and use of the alcohol alkoxylates as adjuvants for the agrochemical field” (BASF SE, priority 2007, published 2010).

The test system of this assay is leaf rust of wheat "Puccinia recondita". The assay can be described thus: Biotest: curative control of leaf rust of wheat. Particulars: wheat seedlings "Kanzler", curative spray 2 days after inoculation; 50 ppm epoxiconazole without adjuvant; disease percent of total leaf area after 10 days. Type of assay: in vivo. The procedure: 125 g/l epoxiconazole were ground together with in each case 20 g/l dispersant (Atlas G 5000^1, Synperonic A^1) and 50 g/l propylene glycol in aqueous medium in a stirred-ball mill (dyno-mill) until a particle size of 80%<2 μm was reached. To the mixture were added 3 g/l per liter antifoam, for example Rhodorsil 426^2, 3 g/l thickener, for example Rhodopol 23^2, and a biocide, for example Acticide MBS^3. The respective adjuvant, in aqueous solution or in a solvent, for example Solvesso, was stirred into this mixture, so that the final concentration of the formulation is composed of 62.5 g/l epoxiconazole and 125 g/l adjuvant. ^1Uniquema/Croda^2Rhodia^3Thor Chemie
Biotest (Curative Control of Leaf Rust of Wheat):
Leaves of wheat seedlings of the species “Kanzler” which had been grown in pots were dusted, in the two-leaf stage, with spores of leaf rust of wheat “Puccinia recondita” and incubated for 2 days in the greenhouse at high atmospheric humidity. In fully automated spray cabins, the plants were then sprayed with the formulations which comprised the active ingredients and adjuvants specified hereinbelow. The spray mixtures comprised 50 ppm epoxiconazole and 100 ppm adjuvant. […] After 10 days, the extent of the leaf rust disease was determined visually as disease percent of the total leaf area. 3 pots were evaluated for each combination.

In the case of `Fc1ccc([C@]2(Cn3cncn3)O[C@H]2c2ccccc2Cl)cc1` (racemic) [Epoxiconazole], the “% infection” value is 40%.
